Measured values taken from the NIST ThermoML archive (doi:10.1016/j.jct.2012.01.003).
Numbers after ± are expanded uncertainties.

How the values were obtained:
[1] = 298.2 K; 101.33 kPa; Liquid; Kyoto 210 Density Meter
[2] = refractive index (Na D-line) (dimensionless); settings: 298.2 K; 101.33 kPa; Liquid; Standard Abbe refractometry

Compound: CCCCCCCCCCO [decan-1-ol]
- mass density [1]: 826.86 ± 0.24 kg/m3
- refractive index [2]: 1.4344 ± 0.0004

Compound: CCC(C)O (stereo unspecified) [butan-2-ol]
- mass density [1]: 802.34 ± 0.23 kg/m3
- refractive index [2]: 1.3949 ± 0.0004

Compound: CCCCCCCO [heptan-1-ol]
- mass density [1]: 818.83 ± 0.24 kg/m3
- refractive index [2]: 1.4224 ± 0.0004

Compound: O [water]
- refractive index [2]: 1.3324 ± 0.0004

Compound: CCCCCCCCO [octan-1-ol]
- mass density [1]: 825.1 ± 0.24 kg/m3
- refractive index [2]: 1.427 ± 0.0004

Compound: CCCCCCO [hexan-1-ol]
- mass density [1]: 815.21 ± 0.24 kg/m3
- refractive index [2]: 1.4155 ± 0.0004
